Experimental data as given in the supplement of paper PMC11061612.

Experiments:
BE2-M17 (Neuroblastoma) = experiment: Bliss excess, mean over the matrix (fraction); higher = more synergy
Method in brief: (§1)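 Bliss excess equals the observed combination effect minus the expected value EA + EB − EA·EB, where EA and EB are the effects of each agent alone. Combination Emax is the second-highest inhibition within the matrix. Inhibition was scaled from CellTiter-Glo 2.0 luminescence, with 0 set by vehicle wells and 1 by blank wells, after 72 hours of two-drug dosing of cells plated in 1536-well plates.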

CAL-72 (Osteosarcoma) = experiment: as above
Method in brief: as §1

[1] = tested on: Detroit562 (Head and Neck Carcinoma); experiment: as above
Method in brief: as §1

EW-11 (Ewing's Sarcoma) = experiment: as above
Method in brief: as §1

GAMG (Glioblastoma) = experiment: as above
Method in brief: as §1

[2] = tested on: HeLa (Cervical Carcinoma); experiment: as above
Method in brief: as §1

[3] = tested on: KMRC-20 (Kidney Carcinoma); experiment: as above
Method in brief: as §1

[4] = tested on: LNZTA3WT4 (Low Grade Glioma); experiment: as above
Method in brief: as §1

[5] = tested on: LS-123 (Colorectal Carcinoma); experiment: as above
Method in brief: as §1

NCI-H2052 (Mesothelioma) = experiment: as above
Method in brief: as §1

[6] = tested on: NUGC-4 (Gastric Carcinoma); experiment: as above
Method in brief: as §1

[7] = tested on: SAS (Oral Cavity Carcinoma); experiment: as above
Method in brief: as §1

[8] = tested on: SNU-16 (Gastric Carcinoma); experiment: as above
Method in brief: as §1

[9] = tested on: TGBC1TKB (Biliary Tract Carcinoma); experiment: as above
Method in brief: as §1

A673 (Ewing's Sarcoma) = experiment: combination Emax (second highest fraction inhibited in the dose matrix, 72 h); higher = more inhibition; extreme values may be limits of the assay
Method in brief: as §1

[10] = tested on: Hs-746T (Gastric Carcinoma); experiment: as above
Method in brief: as §1

[11] = tested on: OVCAR-5 (Ovarian Carcinoma); experiment: as above
Method in brief: as §1

[12] = tested on: SAS (Oral Cavity Carcinoma); experiment: as above
Method in brief: as §1

Row | SMILES | Bliss excess (BE2-M17 (Neuroblastoma)) | Bliss excess (CAL-72 (Osteosarcoma)) | Bliss excess [1] | Bliss excess (EW-11 (Ewing's Sarcoma)) | Bliss excess (GAMG (Glioblastoma)) | Bliss excess [2] | Bliss excess [3] | Bliss excess [4] | Bliss excess [5] | Bliss excess (NCI-H2052 (Mesothelioma)) | Bliss excess [6] | Bliss excess [7] | Bliss excess [8] | Bliss excess [9] | combination Emax (A673 (Ewing's Sarcoma)) | combination Emax [10] | combination Emax [11] | combination Emax [12]
1 | CCN(CCO)CCCOc1ccc2c(Nc3cc(CC(=O)Nc4cccc(F)c4)[nH]n3)ncnc2c1 [AZD2811] + C=CCn1c(=O)c2cnc(Nc3ccc(N4CCN(C)CC4)cc3)nc2n1-c1cccc(C(C)(C)O)n1 [AZD1775] (first compound max 1 µM, partner max 1 µM) | 0.0436 | -0.0866 | 0.05 | 0.0003 | 0.0224 | 0.0278 | -0.0562 | -0.0501 | -0.0373 | -0.0485 | -0.0708 | -0.0526 | 0.0538 | -0.0195 | 0.708 | 0.436 | 0.273 | 0.43
2 | CS(=O)(=O)CCNCc1ccc(-c2ccc3ncnc(Nc4ccc(OCc5cccc(F)c5)c(Cl)c4)c3c2)o1 [Lapatinib] + NC1(c2ccc(-c3nc4ccn5c(=O)[nH]nc5c4cc3-c3ccccc3)cc2)CCC1 [MK-2206] (first compound max 10 µM, 7x7, partner max 10 µM) |  | 0.0288 |  | -0.0003 | 0.016 |  |  | -0.0334 | 0.0101 | -0.0143 |  | 0.0044 | 0.0758 | 0.0079 | 0.363 |  | 0.787 | 0.641
3 | CN(C)CCCOc1ccc(-c2ccc3ncc4c(c3c2)n(C2CCOCC2)c(=O)n4C)cn1 [AZD0156] + CCN(CCO)CCCOc1ccc2c(Nc3cc(CC(=O)Nc4cccc(F)c4)[nH]n3)ncnc2c1 [AZD2811] (first compound max 1 µM, 7x7, partner max 1 µM) | 0.0535 | -0.0213 | 0.0235 | -0.084 | -0.0244 | -0.0136 | -0.0499 | -0.0162 | -0.0409 | -0.0123 | -0.0387 | -0.0391 | 0.0244 | -0.043 | 0.75 | 0.155 | 0.137 | 0.0904
4 | CN(C)CCCOc1ccc(-c2ccc3ncc4c(c3c2)n(C2CCOCC2)c(=O)n4C)cn1 [AZD0156] + C=CCn1c(=O)c2cnc(Nc3ccc(N4CCN(C)CC4)cc3)nc2n1-c1cccc(C(C)(C)O)n1 [AZD1775] (first compound max 1 µM, partner max 1 µM) | -0.0429 | -0.0492 | -0.0122 | -0.0426 | -0.0429 | -0.0364 | -0.0707 | -0.0561 | -0.0229 | -0.0554 | -0.055 | -0.0742 | -0.0158 | -0.0734 | 0.564 | 0.491 | 0.347 | 0.548
5 | C=CCn1c(=O)c2cnc(Nc3ccc(N4CCN(C)CC4)cc3)nc2n1-c1cccc(C(C)(C)O)n1 [AZD1775] + O=C(c1cc(Cc2n[nH]c(=O)c3ccccc23)ccc1F)N1CCN(C(=O)C2CC2)CC1 [Olaparib] (first compound max 1 µM, partner max 10 µM) | -0.0486 | -0.0871 | -0.0389 | -0.121 | 0.0147 | 0.0346 | -0.112 | -0.0395 | -0.0694 | -0.0602 | -0.0481 | -0.0939 | 0.0102 | -0.0558 | 0.822 | 0.591 | 0.447 | 0.577
6 | C=CCn1c(=O)c2cnc(Nc3ccc(N4CCN(C)CC4)cc3)nc2n1-c1cccc(C(C)(C)O)n1 [AZD1775] + C[C@@H]1COCCN1C2=NC(=NC(=C2)C3(CC3)[S@](=N)(=O)C)C4=C5C=CNC5=NC=C4 [AZD6738] (first compound max 1 µM, partner max 10 µM) | 0.103 | -0.0277 | -0.002 | -0.0282 | -0.0218 | 0.0883 | 0.0174 | 0.0076 | -0.0519 | -0.0197 | -0.0701 | 0.0138 | -0.0002 | 0.0388 | 0.907 | 0.691 | 0.782 | 0.908
7 | COc1cccc(OCCCN)c1-c1cc(Nc2cnc(C#N)cn2)n[nH]1 [Prexasertib] + CN(C)CCCOc1ccc(-c2ccc3ncc4c(c3c2)n(C2CCOCC2)c(=O)n4C)cn1 [AZD0156] (first compound max 1 µM, 7x7, partner max 1 µM) | -0.0185 | -0.0922 | -0.014 | -0.0705 | -0.0261 | 0.0079 | -0.0382 | -0.0321 | -0.0387 | -0.025 | 0.0697 | 0.0109 | -0.0135 | -0.0053 | 0.905 | 0.78 | 0.838 | 0.926
8 | COc1cccc(OCCCN)c1-c1cc(Nc2cnc(C#N)cn2)n[nH]1 [Prexasertib] + O=C(c1cc(Cc2n[nH]c(=O)c3ccccc23)ccc1F)N1CCN(C(=O)C2CC2)CC1 [Olaparib] (first compound max 1 µM, 7x7, partner max 10 µM) | -0.0225 | -0.135 | -0.0467 | -0.0849 | 0.0122 | -0.0483 | -0.0735 | -0.0274 | -0.0312 | -0.0332 | -0.019 | -0.0104 | -0.0417 | -0.0767 | 0.923 | 0.806 | 0.693 | 0.93
